In US20260159520A1, “HETEROBIFUNCTIONAL COMPOUNDS AND METHODS OF TREATING DISEASE” (Halda Therapeutics OpCo, Inc., priority 2022, published 2026):

Experiments:
Format in all cases: cell-based
[1] = test system: T-Rex 293 cell line SC3 cells having increased expression of androgen receptor protein; assay: Cellular growth inhibition, T-Rex 293 SC3 cells with doxycycline (increased androgen receptor expression); settings: with 10 ng/mL doxycycline (increased androgen receptor), 72 hours, CellTiter-Glo 2.0
Experimental: (§1) The following types of cells were prepared for this experiment: (i) a T-Rex 293 cell line having increased expression of androgen receptor protein due to exposure to doxycycline and (ii) a T-Rex 293 cell line lacking increased expression of androgen receptor protein. Ability of the test compounds to inhibit proliferation of the foregoing cell types was evaluated according to the procedures set forth below.
(§2) The doxycycline-inducible androgen receptor protein expressing cell line was established using the following protocol: T-Rex 293 cells were purchased from Invitrogen (Cat #R71007) and transfected using Lipofectamine 2000 with the wild-type androgen receptor protein sequence cloned into the pcDNA4/TO vector. Transfected cells were selected using 400 μg/mL Zeocin (Invitrogen Cat #R25001). Following selection, single clones were raised and maintained in Dulbecco's Modified Eagle Medium (DMEM) supplemented with 10% w/w Tetracycline-free fetal bovine serum (FBS) and 250 μg/mL Zeocin. Clones were analyzed for expression of androgen receptor protein in the presence and absence of 10 ng/mL doxycycline (Sigma Cat #D9891), and a single doxycycline-inducible clone (hereinafter “SC3”) was selected for use in downstream assays.
(§3) The SC3 cells were seeded on poly-D-lysine coated, black clear-bottom 384-well plates at 2500/well, in 25 μL Phenol Red Free Dulbecco's Modified Eagle Medium (DMEM) supplemented with 10% w/w charcoal-dextran treated fetal bovine serum (FBS) and 1% w/w pen-strep, with or without 10 ng/mL doxycycline. Pen-Strep is a commercially available mixture of penicillin G and streptomycin, which is used in mammalian cell culture media to prevent bacterial contamination. Phenol Red Free Dulbecco's Modified Eagle Medium (DMEM) supplemented with 10% w/w charcoal-dextran treated fetal bovine serum (FBS) and 1% w/w pen-strep, with or without 10 ng/mL doxycycline is herein referred to as Treatment Medium. Following seeding of cells in the plates, the plates were spun at 300×g for 30 seconds, then equilibrated to room temperature for 30 minutes, and then deposited in a humidified tissue culture incubator maintained at 37° C. with 5% CO2.
(§4) At 24 hours after seeding of the cells, dilutions of test compound were prepared in DMSO and dissolved in Treatment Medium, to achieve a final DMSO concentration of 0.5% w/w, thereby providing the Test Compound Solution. A 25 μL aliquot of the Test Compound Solution was added to cells in the well plates. An equal volume of a solution containing DMSO and Treatment Medium was used as a negative control. Following treatment of cells with Test Compound Solution or said equal volume of a solution containing DMSO and Treatment Medium, the plates were spun at 300×g for 30 seconds, and then left in an incubator for 72 hours.
(§5) At the end of the treatment duration, cell viability was quantified with CellTiter-Glo 2.0 reagent (Promega Cat #G9243). For this purpose, plates were equilibrated to room temperature for 30 minutes, and then 25 μL of CellTiter-Glo 2.0 reagent was added to cells in the plate wells. Plates were then agitated on a shaker for two minutes at 500 rpm and subsequently incubated at room temperature for 10 minutes. Following incubation, the plates were spun at 3000×g for 30 seconds, then sealed with an optical adhesive cover, and luminescence readings were measured with an EnVision Plate Reader.
(§6) Data was normalized using zero luminescence for baseline. A four-parameter non-linear regression curve fit was applied to dose-response data in GraphPad Prism data analysis software to determine the half-maximal growth inhibitory concentration (GI50) for each test compound.

[2] = test system: T-Rex 293 cell line SC3 cells lacking increased expression of androgen receptor protein; assay: Cellular growth inhibition, T-Rex 293 SC3 cells without doxycycline; settings: not exposed to doxycycline, 72 hours, CellTiter-Glo 2.0
Experimental: as §1, §2, §3, §4, §5, §6

VCaP cells = assay: Cellular growth inhibition assay for VCaP cells; settings: Homo sapiens, 72 hours, CellTiter-Glo 2.0
Experimental: VCaP cells were purchased from American Type Cell Culture (ATCC Cat #CRL2876) and then seeded on poly-D-lysine coated, black clear-bottom 384-well plates at 5000/well in 25 μL Dulbecco's Modified Eagle Medium (DMEM) supplemented with 10% w/w Fetal bovine serum (FBS) and 1% w/w Pen-Strep. Pen-Strep is a commercially available mixture of penicillin G and streptomycin, which is used in mammalian cell culture media to prevent bacterial contamination. Dulbecco's Modified Eagle Medium (DMEM) supplemented with 10% w/w fetal bovine serum (FBS) and 1% w/w Pen-Strep is herein referred to as Treatment Medium. Following seeding of cells in the plates, the plates were spun at 300×g for 30 seconds, then equilibrated to room temperature for 30 minutes, and then deposited in a humidified tissue culture incubator maintained at 37° C. with 5% CO2.
as §4
as §5, with “Reader. Data was normalized using zero luminescence for baseline.” for “Reader.”
A four-parameter non-linear regression curve fit was applied to dose-response data in GraphPad Prism data analysis software to determine the half-maximal growth inhibitory concentration (GI50) for each test compound.

Compound	GI50 (VCaP cells) [nM]	GI50 [1] [nM]	GI50 [2] [nM]
CC1(C)[C@H](NC(=O)c2cnc(N3CCC(OCCOCCOCCOCCOCCOCCOCCNS(=O)(=O)c4ccc(Nc5ncc(Br)c(Nc6cccc(F)c6C(N)=O)n5)cc4)CC3)nc2)C(C)(C)[C@H]1Oc1ccc(C#N)c(Cl)c1 [Compound I-16]	–	> 3500	> 3500
CN(CCOCCOCCOCCOCCOCCOCCNS(=O)(=O)c1ccc(Nc2ncc(Br)c(Nc3cccc(F)c3C(N)=O)n2)cc1)c1ncc(C(=O)N[C@H]2C(C)(C)[C@H](Oc3ccc(C#N)c(Cl)c3)C2(C)C)cn1 [Compound I-21]	–	> 3500	> 3500
CCc1cnn2c(NCc3ccc(OCCCOC4CCN(c5ncc(C(=O)N[C@H]6C(C)(C)[C@H](Oc7ccc(C#N)c(Cl)c7)C6(C)C)cn5)CC4)nc3)cc(N3CCCC[C@H]3CCO)nc12 [Compound I-26]	–	1000 to 3500	> 3500
CCc1cnn2c(NCc3ccc(OCCCCCOC4CCN(c5ncc(C(=O)N[C@H]6C(C)(C)[C@H](Oc7ccc(C#N)c(Cl)c7)C6(C)C)cn5)CC4)nc3)cc(N3CCCC[C@H]3CCO)nc12 [Compound I-28]	–	100 to 1000	> 3500
CCc1cnn2c(CCc3ccc(OCCCCCCOC4CCN(c5ncc(C(=O)N[C@H]6C(C)(C)[C@H](Oc7ccc(C#N)c(Cl)c7)C6(C)C)cn5)CC4)nc3)cc(N3CCCC[C@H]3CCO)nc12 [Compound I-29]	–	100 to 1000	> 3500
CCc1cnn2c(NCc3ccc(OCCCCCCCOC4CCN(c5ncc(C(=O)N[C@H]6C(C)(C)[C@H](Oc7ccc(C#N)c(Cl)c7)C6(C)C)cn5)CC4)nc3)cc(N3CCCC[C@H]3CCO)nc12 [Compound I-30]	–	> 3500	> 3500
CCc1cnn2c(NCc3ccc(OCCCC4CCN(CC5CCN(c6ncc(C(=O)N[C@H]7C(C)(C)[C@H](Oc8ccc(C#N)c(Cl)c8)C7(C)C)cn6)CC5)CC4)nc3)cc(N3CCCC[C@H]3CCO)nc12 [Compound I-53]	–	< 100	100 to 1000
CCc1cnn2c(NCc3ccc(OCCCN4CCN(CC5CCN(c6cnc(C(=O)N[C@H]7C(C)(C)[C@H](Oc8ccc(C#N)c(Cl)c8)C7(C)C)cn6)CC5)CC4)nc3)cc(N3CCCC[C@@H]3CCO)nc12 [Compound I-56, N-((1r,3r)-3-(3-chloro-4-cyanophenoxy)-2,2,4,4-tetramethylcyclobutyl)-5-(4-((4-(3-((5-(((3-ethyl-5-((R)-2-(2-hydroxyethyl)piperidin-1-yl)pyrazolo[1,5-a]pyrimidin-7-yl)amino)methyl)pyridin-2-yl)oxy)propyl)piperazin-1-yl)methyl)piperidin-1-yl)pyrazine-2-carboxamide]	100 to 1000	100 to 1000	100 to 1000
CCc1cnn2c(NCc3ccc(OCCCN4CCN(CC5CCN(c6ccc(C(=O)N[C@H]7C(C)(C)[C@H](Oc8ccc(C#N)c(Cl)c8)C7(C)C)nc6)CC5)CC4)nc3)cc(N3CCCC[C@@H]3CCO)nc12 [Compound I-57, N-((1r,3r)-3-(3-chloro-4-cyanophenoxy)-2,2,4,4-tetramethylcyclobutyl)-5-(4-((4-(3-((5-(((3-ethyl-5-((R)-2-(2-hydroxyethyl)piperidin-1-yl)pyrazolo[1,5-a]pyrimidin-7-yl)amino)methyl)pyridin-2-yl)oxy)propyl)piperazin-1-yl)methyl)piperidin-1-yl)picolinamide]	100 to 1000	100 to 1000	100 to 1000

Continued, in another order:

GI50 (VCaP cells) [nM]	Compound	GI50 [1] [nM]	GI50 [2] [nM]
< 100	CCc1cnn2c(NCc3ccc(OCCCOCCOC4CCN(c5ncc(C(=O)N[C@H]6C(C)(C)[C@H](Oc7ccc(C#N)c(Cl)c7)C6(C)C)cn5)CC4)nc3)cc(N3CCCC[C@H]3CCO)nc12 [Compound I-32]	< 100	1000 to 3500
100 to 1000	CCc1cnn2c(NCc3ccc(OCCOCCCOC4CCN(c5ncc(C(=O)N[C@H]6C(C)(C)[C@H](Oc7ccc(C#N)c(Cl)c7)C6(C)C)cn5)CC4)nc3)cc(N3CCCC[C@H]3CCO)nc12 [Compound I-33]	< 100	1000 to 3500
100 to 1000	CCc1cnn2c(NCc3ccc(OCCCOCCCOC4CCN(c5ncc(C(=O)N[C@H]6C(C)(C)[C@H](Oc7ccc(C#N)c(Cl)c7)C6(C)C)cn5)CC4)nc3)cc(N3CCCC[C@H]3CCO)nc12 [Compound I-35]	< 100	100 to 1000
< 100	CCc1cnn2c(NCc3ccc(OCCOCCCCOC4CCN(c5ncc(C(=O)N[C@H]6C(C)(C)[C@H](Oc7ccc(C#N)c(Cl)c7)C6(C)C)cn5)CC4)nc3)cc(N3CCCC[C@H]3CCO)nc12 [Compound I-36]	< 100	> 3500
> 3500	CCc1cnn2c(NCc3ccc(OCCCCCOCCOC4CCN(c5ncc(C(=O)N[C@H]6C(C)(C)[C@H](Oc7ccc(C#N)c(Cl)c7)C6(C)C)cn5)CC4)nc3)cc(N3CCCC[C@H]3CCO)nc12 [Compound I-37]	100 to 1000	> 3500
100 to 1000	CCc1cnn2c(NCc3ccc(OCCCCOCCCOC4CCN(c5ncc(C(=O)N[C@H]6C(C)(C)[C@H](Oc7ccc(C#N)c(Cl)c7)C6(C)C)cn5)CC4)nc3)cc(N3CCCC[C@H]3CCO)nc12 [Compound I-38]	100 to 1000	> 3500
> 3500	CCc1cnn2c(NCc3ccc(OCCCOCCCCOC4CCN(c5ncc(C(=O)N[C@H]6C(C)(C)[C@H](Oc7ccc(C#N)c(Cl)c7)C6(C)C)cn5)CC4)nc3)cc(N3CCCC[C@H]3CCO)nc12 [Compound I-39]	< 100	> 3500
> 3500	CCc1cnn2c(NCc3ccc(OCCOCCCCCOC4CCN(c5ncc(C(=O)N[C@H]6C(C)(C)[C@H](Oc7ccc(C#N)c(Cl)c7)C6(C)C)cn5)CC4)nc3)cc(N3CCCC[C@H]3CCO)nc12 [Compound I-40]	< 100	> 3500
